Tested on: histamine-induced ulcer formation
Test: Inhibition of histamine-induced ulcer formation
Type: in vivo, Wister strain rats
Conditions: 20 mg/kg i.v., rats, histamine dihydrochloride 300 mg/kg i.p., 4 hours; for Ulcer coefficient (mean ± S.E.): sum of surface area of ulcer lesion
Protocol: Immediately thereafter, 300 mg/kg of histamine dihydrochloride was administered intraperitoneally (i.p.) F. Burcher et al; [Beith. Path. Anat., 81, 391 (1928)]. Four hours later, each animal was bled to death by decapitation, and the stomach was removed. 7.5 ml of physiological saline was infused into the removed stomach and partially fixed in 10% formalin for 10 minutes. Then, the stomach was incised along the greater curvature. The sum of the surface area of the ulcer lesion on the glandular part of the stomach was designated as the ulcer coefficient.

Compound | Inhibition rate (%) | Ulcer coefficient (mean ± S.E.)
CN/C(=N/CCSCc1nc[nH]c1C)NC#N [Cimetidine] | 57.6% | 19.1 ± 10.6
cyclic histidyllysine | 66.8% | 14.9 ± 6.0
